Measured values: the supplement of paper PMC10307832

Assays:
Test in all cases: relative viability (nuclei count vs DMSO), 5 days (fraction); higher = more cells survive
NCI-H322M = system: NCI-H322M
Summary of the method: (§1)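 Lung cancer cell lines, seeded in 1536-well plates, were treated the following day by pin tool with a single drug or with five library-drug doses (not always all listed) in √10 steps on top of a fixed anchor-drug dose. Cells were fixed and nuclei stained in one step after 5 days, and nuclei were counted. Relative viability is the nuclei count for treated wells divided by that for vehicle wells, reported as medians of duplicate plates.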

CAL-12T = system: CAL-12T
Summary of the method: as §1

COR-L 105 = system: COR-L 105
Summary of the method: as §1

NCI-H2023 = system: NCI-H2023
Summary of the method: as §1

ChaGo-K-1 = system: ChaGo-K-1
Summary of the method: as §1

HCC-15 = system: HCC-15
Summary of the method: as §1

NCI-H2085 = system: NCI-H2085
Summary of the method: as §1

HOP-62 = system: HOP-62
Summary of the method: as §1

NCI-H1975 = system: NCI-H1975
Summary of the method: as §1

ABC-1 = system: ABC-1
Summary of the method: as §1

NCI-H1666 = system: NCI-H1666
Summary of the method: as §1

EMC-BAC-2 = system: EMC-BAC-2
Summary of the method: as §1

NCI-H1915 = system: NCI-H1915
Summary of the method: as §1

UMC-11 = system: UMC-11
Summary of the method: as §1

NCI-H3122 = system: NCI-H3122
Summary of the method: as §1

NCI-H1755 = system: NCI-H1755
Summary of the method: as §1

NCI-H441 = system: NCI-H441
Summary of the method: as §1

NCI-H2126 = system: NCI-H2126
Summary of the method: as §1

HCC-78 = system: HCC-78
Summary of the method: as §1

LXF-289 = system: LXF-289
Summary of the method: as §1

NCI-H358 = system: NCI-H358
Summary of the method: as §1

NCI-H1993 = system: NCI-H1993
Summary of the method: as §1

EPLC-272H = system: EPLC-272H
Summary of the method: as §1

`C=C1C(=O)O[C@@H](CCCCCCCC)[C@@H]1C(=O)O` [C-75] + COc1cccc2cc(-c3nc([C@H]4CC[C@H](C(=O)O)CC4)n4ncnc(N)c34)[nH]c12 [OSI-027] (partner 0.5 µM) gave a relative viability (NCI-H322M; first compound 0.08 µM) of 0.543, a relative viability (NCI-H322M; first compound 0.253 µM) of 0.7 and a relative viability (NCI-H322M; first compound 0.8 µM) of 0.583. It also gave a relative viability (NCI-H322M; first compound 2.53 µM) of 0.478, a relative viability (NCI-H322M; first compound 8 µM) of 0.588 and a relative viability (CAL-12T; first compound 0.08 µM) of 0.862. It also gave a relative viability (CAL-12T; first compound 0.253 µM) of 1.06, a relative viability (CAL-12T; first compound 0.8 µM) of 0.697 and a relative viability (CAL-12T; first compound 2.53 µM) of 0.592. For the same compound, the relative viability (CAL-12T; first compound 8 µM) was 0.63, the relative viability (COR-L 105; first compound 0.08 µM) was 0.709 and the relative viability (COR-L 105; first compound 0.253 µM) was 0.757. The relative viability (COR-L 105; first compound 0.8 µM) was 0.648, the relative viability (COR-L 105; first compound 2.53 µM) was 0.515 and the relative viability (COR-L 105; first compound 8 µM) was 0.696. It also gave a relative viability (NCI-H2023; first compound 0.08 µM) of 0.455, a relative viability (NCI-H2023; first compound 0.253 µM) of 0.558 and a relative viability (NCI-H2023; first compound 0.8 µM) of 0.34. The relative viability (NCI-H2023; first compound 2.53 µM) was 0.415, the relative viability (NCI-H2023; first compound 8 µM) was 0.32 and the relative viability (ChaGo-K-1; first compound 0.08 µM) was 0.605. For the same compound, the relative viability (ChaGo-K-1; first compound 0.253 µM) was 0.545, the relative viability (ChaGo-K-1; first compound 0.8 µM) was 0.532 and the relative viability (ChaGo-K-1; first compound 2.53 µM) was 0.422. For the same compound, the relative viability (ChaGo-K-1; first compound 8 µM) was 0.564, the relative viability (HCC-15; first compound 0.08 µM) was 0.628 and the relative viability (HCC-15; first compound 0.253 µM) was 0.707. For the same compound, the relative viability (HCC-15; first compound 0.8 µM) was 0.655, the relative viability (HCC-15; first compound 2.53 µM) was 0.502 and the relative viability (HCC-15; first compound 8 µM) was 0.636. For the same compound, the relative viability (NCI-H2085; first compound 0.08 µM) was 0.882, the relative viability (NCI-H2085; first compound 0.253 µM) was 0.883 and the relative viability (NCI-H2085; first compound 0.8 µM) was 0.689. For the same compound, the relative viability (NCI-H2085; first compound 2.53 µM) was 0.757, the relative viability (NCI-H2085; first compound 8 µM) was 0.73 and the relative viability (HOP-62; first compound 0.08 µM) was 0.816. The relative viability (HOP-62; first compound 0.253 µM) was 0.825, the relative viability (HOP-62; first compound 0.8 µM) was 0.865 and the relative viability (HOP-62; first compound 2.53 µM) was 0.738. It also gave a relative viability (HOP-62; first compound 8 µM) of 0.705, a relative viability (NCI-H1975; first compound 0.08 µM) of 0.842 and a relative viability (NCI-H1975; first compound 0.253 µM) of 0.672. The relative viability (NCI-H1975; first compound 0.8 µM) was 0.679, the relative viability (NCI-H1975; first compound 2.53 µM) was 0.436 and the relative viability (NCI-H1975; first compound 8 µM) was 0.717. For the same compound, the relative viability (ABC-1; first compound 0.08 µM) was 0.498, the relative viability (ABC-1; first compound 0.253 µM) was 0.587 and the relative viability (ABC-1; first compound 0.8 µM) was 0.479. It also gave a relative viability (ABC-1; first compound 2.53 µM) of 0.379, a relative viability (ABC-1; first compound 8 µM) of 0.35 and a relative viability (NCI-H1666; first compound 0.08 µM) of 0.798. It also gave a relative viability (NCI-H1666; first compound 0.253 µM) of 0.97, a relative viability (NCI-H1666; first compound 0.8 µM) of 0.885 and a relative viability (NCI-H1666; first compound 2.53 µM) of 0.726. It also gave a relative viability (NCI-H1666; first compound 8 µM) of 0.786, a relative viability (EMC-BAC-2; first compound 0.08 µM) of 0.416 and a relative viability (EMC-BAC-2; first compound 0.253 µM) of 0.385. The relative viability (EMC-BAC-2; first compound 0.8 µM) was 0.384, the relative viability (EMC-BAC-2; first compound 2.53 µM) was 0.269 and the relative viability (EMC-BAC-2; first compound 8 µM) was 0.341. For the same compound, the relative viability (NCI-H1915; first compound 0.08 µM) was 0.656, the relative viability (NCI-H1915; first compound 0.253 µM) was 0.588 and the relative viability (NCI-H1915; first compound 0.8 µM) was 0.61. For the same compound, the relative viability (NCI-H1915; first compound 2.53 µM) was 0.382, the relative viability (NCI-H1915; first compound 8 µM) was 0.588 and the relative viability (UMC-11; first compound 0.08 µM) was 0.457. For the same compound, the relative viability (UMC-11; first compound 0.253 µM) was 0.579, the relative viability (UMC-11; first compound 0.8 µM) was 0.477 and the relative viability (UMC-11; first compound 2.53 µM) was 0.461. The relative viability (UMC-11; first compound 8 µM) was 0.417, the relative viability (NCI-H3122; first compound 0.08 µM) was 1.1 and the relative viability (NCI-H3122; first compound 0.253 µM) was 1.27. The relative viability (NCI-H3122; first compound 0.8 µM) was 0.971, the relative viability (NCI-H3122; first compound 8 µM) was 0.854 and the relative viability (NCI-H1755; first compound 0.08 µM) was 0.767. It also gave a relative viability (NCI-H1755; first compound 0.253 µM) of 0.724, a relative viability (NCI-H1755; first compound 0.8 µM) of 0.711 and a relative viability (NCI-H1755; first compound 2.53 µM) of 0.604. It also gave a relative viability (NCI-H1755; first compound 8 µM) of 0.72, a relative viability (NCI-H441; first compound 0.08 µM) of 0.512 and a relative viability (NCI-H441; first compound 0.253 µM) of 0.713. For the same compound, the relative viability (NCI-H441; first compound 0.8 µM) was 0.678, the relative viability (NCI-H441; first compound 2.53 µM) was 0.36 and the relative viability (NCI-H441; first compound 8 µM) was 0.548. It also gave a relative viability (NCI-H2126; first compound 0.08 µM) of 0.762, a relative viability (NCI-H2126; first compound 0.253 µM) of 0.757 and a relative viability (NCI-H2126; first compound 0.8 µM) of 0.707. The relative viability (NCI-H2126; first compound 2.53 µM) was 0.744, the relative viability (NCI-H2126; first compound 8 µM) was 0.66 and the relative viability (HCC-78; first compound 0.08 µM) was 0.354. It also gave a relative viability (HCC-78; first compound 0.253 µM) of 0.42, a relative viability (HCC-78; first compound 0.8 µM) of 0.376 and a relative viability (HCC-78; first compound 2.53 µM) of 0.329. The relative viability (HCC-78; first compound 8 µM) was 0.422, the relative viability (LXF-289; first compound 0.08 µM) was 0.844 and the relative viability (LXF-289; first compound 0.253 µM) was 0.758. For the same compound, the relative viability (LXF-289; first compound 0.8 µM) was 0.719, the relative viability (LXF-289; first compound 2.53 µM) was 0.642 and the relative viability (LXF-289; first compound 8 µM) was 0.713. It also gave a relative viability (NCI-H358; first compound 0.08 µM) of 0.714, a relative viability (NCI-H358; first compound 0.253 µM) of 0.871 and a relative viability (NCI-H358; first compound 0.8 µM) of 0.691. It also gave a relative viability (NCI-H358; first compound 2.53 µM) of 0.383, a relative viability (NCI-H358; first compound 8 µM) of 0.624 and a relative viability (NCI-H1993; first compound 0.08 µM) of 0.558. The relative viability (NCI-H1993; first compound 0.253 µM) was 0.61, the relative viability (NCI-H1993; first compound 0.8 µM) was 0.491 and the relative viability (NCI-H1993; first compound 2.53 µM) was 0.539. It also gave a relative viability (NCI-H1993; first compound 8 µM) of 0.589, a relative viability (EPLC-272H; first compound 0.08 µM) of 0.271 and a relative viability (EPLC-272H; first compound 0.253 µM) of 0.302. For the same compound, the relative viability (EPLC-272H; first compound 0.8 µM) was 0.278, the relative viability (EPLC-272H; first compound 2.53 µM) was 0.227 and the relative viability (EPLC-272H; first compound 8 µM) was 0.235.
